We go through 3 compounds from patent publication US9486506B2 (Novo Nordisk A/S, priority 2011, dated 2016).

Numbered stars: 1 amine (or outer) side, 2 acyl side, 3 side chain; on linkers, the order of the positions; unused ones are H or OH. Side chains are listed from the residue outwards. Peptide text beside a SMILES is read from it. * marks the point of attachment. C18 diacid = O=C(O)CCCCCCCCCCCCCCCCC(=O)*; γGlu = O=C(O)[C@H](CCC(=O)[*:2])N[*:1]; AEEA = NCCOCCOCC(=O)O

Series [1] can be described thus: Assay (XI) Pharmacokinetic study in minipigs. The format is in vivo, Göttingen minipigs. Conditions: both sexes, Göttingen, minipig, plasma, iv, i.v. administration, terminal half-life, read-out: iv PK minipig [T½] (converted). As for the experimental part:
Buffer: • 50 mM Dinatriumphosphatdihydrat • 184 mM Propylenglycol • 58 mM Phenol • pH adjusted to 8.15 with H3PO4. In cases where pH was adjusted to 8.15 after re-suspension of analogues, 0.2 M NaOH was used. Assay (XI) Pharmacokinetic Study in Minipigs
This is done in a pharmacokinetic (PK) study, whereamong other parameters the terminal half-life and the clearance of the derivative in question is determined. Increasing the terminal half-life and decreasing the clearance means that the compound of study is eliminated slower from the body.
Male or female Göttingen minipigs were obtained from Ellegaard Göttingen Minipigs (Dalmose, Denmark) approximately 7-14 months of age and weighing from approximately 16-35 kg were used in the studies. The minipigs were housed either individually (pigs with permanent catheters) or in a group and fed restrictedly once or twice daily with SDS minipig diet (Special Diets Services, Essex, UK). In some studies two permanent central venous catheters were implanted in vena cava caudalis or cranialis in each animal after at least 2 weeks of acclimatisation. […] On each dosing occasion these pigs were instrumented with a venflon in one ear vein through which the derivatives were dosed. Blood sampling was done by venipuncture in v. jugularis or v. cava cranialis
The animals were either unfasted or fasted for approximately 18 h before dosing and from 0 to 4 h after dosing, but had ad libitum access to water during the whole period.
Intravenous injections (the volume corresponding to usually 2-3 nmol/kg, for example 0.1 ml/kg) of the compounds were given through one catheter or through the venflon, and blood was sampled at predefined time points for up till 13 days post dosing (preferably through the other catheter or by venipuncture). Blood samples (for example 0.8 ml) were collected in tubes with EDTA buffer (8 mM) (sometimes aprotinin 500 KIU/ml blood was added) and then centrifuged at 4° C. and 1942 G for 10 minutes. […] Based on these measurements, time-plasma concentration profiles for the compound of study are plotted and a so-called non-compartmental pharmacokinetic analysis of the data is performed in WinNonlin v. 5.0 or Phoenix v. 6.2 (Pharsight Inc., Mountain View, Calif., USA) or other relevant software for PK analysis. For most compounds, the terminal part of the plasma-concentration profiles will be linear when drawn in a semi-logarithmic plot, reflecting that after the initial distribution, drug is removed from the body at a constant fractional rate. The rate (lambda Z or is equal to minus the slope of the terminal part of the plot. From this rate, also the terminal half-life may be calculated, as t½=ln(2)/λz (see, e.g., Johan Gabrielsson and Daniel Weiner: Pharmacokinetics and Pharmacodynamic Data Analysis. Concepts & Applications, 3rd Ed., Swedish Pharmaceutical Press, Stockholm (2000)).
Clearance is defined as the dose (D) divided by area under the curve (AUC) on the plasmaconcentration versus time profile (Rowland, M and Tozer T N: Clinical Pharmacokinetics: Concepts and Applications, 3rd edition, 1995 Williams Wilkins)

The nature of series [2]: Assay (X) Chemical stability assessment by RP-UPLC. The class given is physicochemical. The settings on record: pH 8.15, 14 days at 37° C. vs 5° C., 333 μM.
The next series concerns the target T1, glucagon receptor (Homo sapiens, UniProt P47871).
T1 construct: expressed in transfected cells
As to the kind of experiment: Assay (I) Glucagon activity (cAMP biosensor, FLIPR). The class given is cell-based.

T1 sequence (P47871 26-477): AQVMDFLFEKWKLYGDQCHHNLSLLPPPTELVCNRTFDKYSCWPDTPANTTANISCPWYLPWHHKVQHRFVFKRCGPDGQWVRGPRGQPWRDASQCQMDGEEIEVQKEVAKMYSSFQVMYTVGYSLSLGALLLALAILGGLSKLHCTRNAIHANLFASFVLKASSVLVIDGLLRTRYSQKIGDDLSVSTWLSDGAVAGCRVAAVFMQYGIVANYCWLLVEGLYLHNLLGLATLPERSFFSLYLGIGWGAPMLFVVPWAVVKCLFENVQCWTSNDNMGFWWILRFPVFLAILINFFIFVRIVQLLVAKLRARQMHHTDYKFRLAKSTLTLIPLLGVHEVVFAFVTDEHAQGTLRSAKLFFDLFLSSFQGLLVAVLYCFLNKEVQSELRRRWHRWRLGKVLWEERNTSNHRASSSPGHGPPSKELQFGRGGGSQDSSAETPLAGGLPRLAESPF

The term EC50 denotes the concentration at which the effect is half-maximal. Low readings indicate higher potency in that assay, high ones lower potency in that assay. Consider `CC(C)C[C@H](NC(=O)[C@H](CC(=O)O)NC(=O)[C@H](CC(C)C)NC(=O)[C@H](Cc1ccc(O)cc1)NC(=O)[C@H](CCCCN)NC(=O)[C@H](CO)NC(=O)[C@H](Cc1ccc(O)cc1)NC(=O)[C@H](CC(=O)O)NC(=O)[C@H](CO)NC(=O)[C@@H](NC(=O)[C@H](Cc1ccccc1)NC(=O)[C@@H](NC(=O)CNC(=O)[C@H](CCC(N)=O)NC(=O)[C@H](CO)NC(=O)[C@@H](N)Cc1c[nH]cn1)[C@@H](C)O)[C@@H](C)O)C(=O)N[C@@H](CCCNC(=N)N)C(=O)N[C@@H](CCCNC(=N)N)C(=O)N[C@@H](C)C(=O)N[C@@H](CCC(N)=O)C(=O)N[C@@H](CC(=O)O)C(=O)N[C@@H](Cc1ccccc1)C(=O)N[C@H](C(=O)N[C@@H](CCCCNC(=O)CC[C@H](NC(=O)CC[C@H](NC(=O)CC[C@H](NC(=O)CC[C@H](NC(=O)CCCCCCCCCCCCCCCCC(=O)O)C(=O)O)C(=O)O)C(=O)O)C(=O)O)C(=O)N[C@@H](Cc1c[nH]c2ccccc12)C(=O)N[C@@H](CC(C)C)C(=O)N[C@@H](CC(C)C)C(=O)N[C@@H](CO)C(=O)N[C@H](C(=O)O)[C@@H](C)O)C(C)C` [Example 80, N^ε24-[(4S)-4-carboxy-4-[[(4S)-4-carboxy-4-[[(4S)-4-carboxy-4-[[(4S)-4-carboxy-4-(17-carboxyheptadecanoylamino)butanoyl]amino]butanoyl]amino]butanoyl]amino]butanoyl]-[Leu16,Lys24,Leu27,Ser28]-Glucagon], for which the half-life in series [1] was 60.9 h. Further, in series [2], the “Chemical stability [Purity loss/14 days 37 C.]” value is recorded as 4.5%. Further, the EC50 on glucagon receptor was 126 pM.
With `CC(C)C[C@H](NC(=O)[C@H](CC(=O)O)NC(=O)[C@H](CC(C)C)NC(=O)[C@H](Cc1ccc(O)cc1)NC(=O)[C@H](CCCCN)NC(=O)[C@H](CO)NC(=O)[C@@H](NC(=O)[C@H](CC(=O)O)NC(=O)[C@H](CO)NC(=O)[C@@H](NC(=O)[C@H](Cc1ccccc1)NC(=O)[C@@H](NC(=O)CNC(=O)[C@H](CCC(N)=O)NC(=O)[C@H](CO)NC(=O)[C@@H](N)Cc1c[nH]cn1)[C@@H](C)O)[C@@H](C)O)C(C)C)C(=O)N[C@@H](CCCNC(=N)N)C(=O)N[C@@H](CCCNC(=N)N)C(=O)N[C@@H](C)C(=O)N[C@@H](CCC(N)=O)C(=O)N[C@@H](CCC(=O)O)C(=O)N[C@@H](Cc1ccccc1)C(=O)N[C@H](C(=O)N[C@@H](CCCCNC(=O)CC[C@H](NC(=O)COCCOCCNC(=O)COCCOCCNC(=O)CC[C@H](NC(=O)CC[C@H](NC(=O)CCCCCCCCCCCCCCCCC(=O)O)C(=O)O)C(=O)O)C(=O)O)C(=O)N[C@@H](Cc1c[nH]c2ccccc12)C(=O)N[C@@H](CC(C)C)C(=O)N[C@@H](CC(C)C)C(=O)N[C@@H](CO)C(=O)N[C@H](C(=O)O)[C@@H](C)O)C(C)C` [Example 63, N^ε24-[(4S)-4-carboxy-4-[[2-[2-[2-[[2-[2-[2-[[(4S)-4-carboxy-4-[[(4S)-4-carboxy-4-(17-carboxyheptadecanoylamino)butanoyl]amino]butanoyl]amino]ethoxy]ethoxy]acetyl]amino]ethoxy]ethoxy]acetyl]amino]butanoyl]-[Val10,Leu16,Glu21,Lys24,Leu27,Ser28]-Glucagon] (H-HSQGTFTSDVSKYLDLRRAQEFVK([γGlu-AEEA-AEEA-γGlu-γGlu-C18 diacid])WLLST-OH), in series [1], the half-life was 63.7 h. Moreover, the “Chemical stability [Purity loss/14 days 37 C.]” value in series [2] is 4.1%. In addition, on glucagon receptor, a half-maximal effect (EC50) was put at 88 pM.
On to `CC(C)C[C@H](NC(=O)[C@H](CC(=O)O)NC(=O)[C@H](CC(C)C)NC(=O)[C@H](Cc1ccc(O)cc1)NC(=O)[C@H](CCCNC(=N)N)NC(=O)[C@H](CO)NC(=O)[C@H](Cc1ccc(O)cc1)NC(=O)[C@H](CC(=O)O)NC(=O)[C@H](CO)NC(=O)[C@@H](NC(=O)[C@H](Cc1ccccc1)NC(=O)[C@@H](NC(=O)CNC(=O)[C@H](CCC(N)=O)NC(=O)[C@H](CO)NC(=O)[C@@H](N)Cc1c[nH]cn1)[C@@H](C)O)[C@@H](C)O)C(=O)N[C@@H](CCCNC(=N)N)C(=O)N[C@@H](CCCNC(=N)N)C(=O)N[C@@H](C)C(=O)N[C@@H](CCC(N)=O)C(=O)N[C@@H](CC(=O)O)C(=O)N[C@@H](Cc1ccccc1)C(=O)N[C@H](C(=O)N[C@@H](CCCCNC(=O)CC[C@H](NC(=O)CC[C@H](NC(=O)COCCOCCNC(=O)COCCOCCNC(=O)CC[C@H](NC(=O)CCCCCCCCCCCCCCCCC(=O)O)C(=O)O)C(=O)O)C(=O)O)C(=O)N[C@@H](Cc1c[nH]c2ccccc12)C(=O)N[C@@H](CC(C)C)C(=O)N[C@@H](CC(C)C)C(=O)N[C@@H](CO)C(=O)N[C@H](C(=O)O)[C@@H](C)O)C(C)C` [Example 15, N^ε24-[(4S)-4-carboxy-4-[[(4S)-4-carboxy-4-[[2-[2-[2-[[2-[2-[2-[[(4S)-4-carboxy-4-(17-carboxyheptadecanoylamino)butanoyl]amino]ethoxy]ethoxy]acetyl]amino]ethoxy]ethoxy]acetyl]amino]butanoyl]amino]butanoyl]-[Arg^12,Leu^16,Lys^24,Leu^27,Ser^28]-Glucagon] (H-HSQGTFTSDYSRYLDLRRAQDFVK([γGlu-γGlu-AEEA-AEEA-γGlu-C18 diacid])WLLST-OH), for which the half-life in series [1] was 77.4 h. Besides, the “Chemical stability [Purity loss/14 days 37 C.]” value in series [2] was found to be 5.3%. Besides, the response at glucagon receptor was half-maximal at 255 pM (EC50).
